Source: PubChem BioAssay AID328 (DTP/NCI, 2004)
Values joined by “and” are separate entries in the source; they are usually repeats but may differ in a detail not shown here. Equal entries are not always repeated. Inconclusive results and toxic doses are left out.

Test system: BDF1 mice, P388 leukemia ip, median survival T/C
Experiment: NCI In Vivo Anticancer Drug Screen. Data for tumor model P388 Leukemia (intraperitoneal) in B6D2F1 (BDF1) mice
Details: endpoint: median survival time, higher = longer survival
Procedure, shortened: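 Read-out is survival of treated animals expressed relative to the vehicle group, as a T/C ratio.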

[1] = dose: 100.0 mg/kg/injection, schedule: Q01DX001 (ip), vehicle: Klucel (hydroxypropylcellulose) (HPC)
[2] = dose: 200.0 mg/kg/injection, schedule: Q01DX001 (ip), vehicle: Klucel (hydroxypropylcellulose) (HPC)
[3] = dose: 400.0 mg/kg/injection, schedule: Q01DX001 (ip), vehicle: Klucel (hydroxypropylcellulose) (HPC)
[4] = dose: 100.0 mg/kg/injection, schedule: Q04DX003 (ip), vehicle: saline with Tween-80
[5] = dose: 200.0 mg/kg/injection, schedule: Q04DX003 (ip), vehicle: saline with Tween-80
[6] = dose: 400.0 mg/kg/injection, schedule: Q04DX003 (ip), vehicle: saline with Tween-80
[7] = dose: 50.0 mg/kg/injection, schedule: Q01DX009 (ip), vehicle: saline
[8] = dose: 100.0 mg/kg/injection, schedule: Q01DX009 (ip), vehicle: saline
[9] = dose: 25.0 mg/kg/injection, schedule: Q01DX009 (ip), vehicle: saline
[10] = dose: 25.0 mg/kg/injection, schedule: Q04DX003 (ip), vehicle: saline
[11] = dose: 50.0 mg/kg/injection, schedule: Q04DX003 (ip), vehicle: saline with Tween-80
[12] = dose: 6.25 mg/kg/injection, schedule: Q01DX009 (ip), vehicle: saline
[13] = dose: 12.5 mg/kg/injection, schedule: Q01DX009 (ip), vehicle: saline
[14] = dose: 6.25 mg/kg/injection, schedule: Q04DX003 (ip), vehicle: Klucel (hydroxypropylcellulose) (HPC)
[15] = dose: 12.5 mg/kg/injection, schedule: Q04DX003 (ip), vehicle: Klucel (hydroxypropylcellulose) (HPC)
[16] = dose: 50.0 mg/kg/injection, schedule: Q04DX003 (ip), vehicle: Klucel (hydroxypropylcellulose) (HPC)
[17] = dose: 100.0 mg/kg/injection, schedule: Q04DX003 (ip), vehicle: Klucel (hydroxypropylcellulose) (HPC)
[18] = dose: 200.0 mg/kg/injection, schedule: Q04DX003 (ip), vehicle: Klucel (hydroxypropylcellulose) (HPC)
[19] = dose: 50.0 mg/kg/injection, schedule: Q01DX009 (ip), vehicle: saline with Tween-80
[20] = dose: 100.0 mg/kg/injection, schedule: Q01DX009 (ip), vehicle: saline with Tween-80
[21] = dose: 200.0 mg/kg/injection, schedule: Q01DX009 (ip), vehicle: saline with Tween-80

## COc1cc2cc3c4ccccc4cc[n+]3c(C)c2cc1OC (tested in a mixture with another compound)
dose: 5.0 mg/kg/injection, schedule: Q04DX003 (ip), vehicle: saline
  T/C: 101 % of control
dose: 20.0 mg/kg/injection, schedule: Q01DX009 (ip), vehicle: saline
  T/C: 109 % of control
dose: 40.0 mg/kg/injection, schedule: Q01DX009 (ip), vehicle: saline
  T/C: 104 % of control
dose: 80.0 mg/kg/injection, schedule: Q04DX003 (ip), vehicle: saline
  T/C: 109 % of control

## Cc1ccc(N=C(c2ccccc2)c2ccc([N+](=O)[O-])cc2)cc1
[1]
  T/C: 108 % of control
[2]
  T/C: 100 % of control
[3]
  T/C: 104 % of control

## Cc1ccc(C(=O)CCCCl)c(C)c1
[4]
  T/C: 109 % of control
[5]
  T/C: 109 % of control
[6]
  T/C: 118 % of control

## CCOc1ccc(C(=O)Nc2c(C)cc(C)cc2C)cc1
[4]
  T/C: 96 % of control
[5]
  T/C: 112 % of control
[6]
  T/C: 104 % of control

## Cc1cc(C)n(-c2nn3nnnc3c3ccccc23)n1
[7]
  T/C: 95 % of control
[8]
  T/C: 95 % of control
dose: 200.0 mg/kg/injection, schedule: Q01DX009 (ip), vehicle: saline
  T/C: 93 % of control

## N#C/C(=C\c1ccncc1)c1csc2ccccc12
dose: 50.0 mg/kg/injection, schedule: Q01DX011 (ip), vehicle: Klucel (hydroxypropylcellulose) (HPC)
  T/C: 111 % of control
dose: 100.0 mg/kg/injection, schedule: Q01DX011 (ip), vehicle: Klucel (hydroxypropylcellulose) (HPC)
  T/C: 107 % of control
dose: 200.0 mg/kg/injection, schedule: Q01DX011 (ip), vehicle: Klucel (hydroxypropylcellulose) (HPC)
  T/C: 107 % of control
dose: 400.0 mg/kg/injection, schedule: Q01DX011 (ip), vehicle: Klucel (hydroxypropylcellulose) (HPC)
  T/C: 89 % of control

## C(COCC1CO1)OCC1CO1 (stereo unspecified)
[9]
  T/C: 154 % of control and 165 % of control
[10]
  T/C: 108 % of control
[7]
  T/C: 168 % of control and 185 % of control
[11]
  T/C: 160 % of control
[8]
  T/C: 209 % of control
[4]
  T/C: 165 % of control
dose: 100.0 mg/kg/injection, schedule: Q04DX003 (ip), vehicle: saline
  T/C: 154 % of control

## CCCCCCCCCCC[N+](C)(C)CC[N+](C)(C)CCCCCCCCCCC
dose: 3.13 mg/kg/injection, schedule: Q01DX009 (ip), vehicle: saline
  T/C: 107 % of control
[12]
  T/C: 110 % of control
[13]
  T/C: 111 % of control

## O=C(Nc1cccc(Cl)c1)Oc1ccc2ccccc2c1
[1]
  T/C: 109 % of control
[2]
  T/C: 113 % of control
[3]
  T/C: 100 % of control

## CN(C)C1CCc2[nH]c3c(F)cc(F)cc3c2C1 (stereo unspecified)
dose: 3.13 mg/kg/injection, schedule: Q01DX009 (ip), vehicle: saline with Tween-80
  T/C: 95 % of control
dose: 6.25 mg/kg/injection, schedule: Q01DX009 (ip), vehicle: saline with Tween-80
  T/C: 103 % of control
dose: 12.5 mg/kg/injection, schedule: Q01DX009 (ip), vehicle: saline with Tween-80
  T/C: 101 % of control

## CC(CC(=O)O)C(C(=O)O)C(=O)O (stereo unspecified)
[14]
  T/C: 94 % of control
dose: 6.25 mg/kg/injection, schedule: Q04DX003 (ip), vehicle: water
  T/C: 107 % of control
dose: 12.5 mg/kg/injection, schedule: Q01DX009 (ip), vehicle: water
  T/C: 108 % of control
[15]
  T/C: 92 % of control
dose: 12.5 mg/kg/injection, schedule: Q04DX003 (ip), vehicle: water
  T/C: 95 % of control and 105 % of control
dose: 25.0 mg/kg/injection, schedule: Q01DX009 (ip), vehicle: water
  T/C: 107 % of control
dose: 25.0 mg/kg/injection, schedule: Q04DX003 (ip), vehicle: Klucel (hydroxypropylcellulose) (HPC)
  T/C: 92 % of control
dose: 25.0 mg/kg/injection, schedule: Q04DX003 (ip), vehicle: water
  T/C: 266 % of control and 94 % of control and 110 % of control
[16]
  T/C: 90 % of control
dose: 50.0 mg/kg/injection, schedule: Q04DX003 (ip), vehicle: water
  T/C: 266 % of control and 95 % of control and 117 % of control
dose: 100.0 mg/kg/injection, schedule: Q01DX009 (ip), vehicle: water
  T/C: 100 % of control
[17]
  T/C: 91 % of control
dose: 100.0 mg/kg/injection, schedule: Q04DX003 (ip), vehicle: water
  T/C: 86 % of control and 95 % of control and 100 % of control
dose: 200.0 mg/kg/injection, schedule: Q01DX009 (ip), vehicle: water
  T/C: 91 % of control
[18]
  T/C: 90 % of control
dose: 200.0 mg/kg/injection, schedule: Q04DX003 (ip), vehicle: water
  T/C: 101 % of control and 111 % of control
dose: 400.0 mg/kg/injection, schedule: Q01DX009 (ip), vehicle: water
  T/C: 91 % of control

## Oc1ccccc1C=NCCN1CC1.Oc1ccccc1C=NCCN1CC1.[Ni+2]
dose: 6.25 mg/kg/injection, schedule: Q01DX009 (ip), vehicle: Klucel (hydroxypropylcellulose) (HPC)
  T/C: 101 % of control
dose: 12.5 mg/kg/injection, schedule: Q01DX009 (ip), vehicle: Klucel (hydroxypropylcellulose) (HPC)
  T/C: 101 % of control
[15]
  T/C: 98 % of control
dose: 25.0 mg/kg/injection, schedule: Q04DX003 (ip), vehicle: saline sonified
  T/C: 115 % of control
[16]
  T/C: 122 % of control

## CCOC(=O)C1(C(C)C)OC2CCCCCN2C1=O (stereo unspecified)
[11]
  T/C: 100 % of control
[4]
  T/C: 108 % of control
[5]
  T/C: 100 % of control
[6]
  T/C: 108 % of control

## COC(=O)c1sccc1C=O
[17]
  T/C: 96 % of control
[18]
  T/C: 96 % of control
dose: 400.0 mg/kg/injection, schedule: Q04DX003 (ip), vehicle: Klucel (hydroxypropylcellulose) (HPC)
  T/C: 92 % of control

## CC1(C)N=C(N)N=C(N)N1c1ccccc1
[13]
  T/C: 118 % of control
[9]
  T/C: 113 % of control
[7]
  T/C: 118 % of control

## CN(C)CCCc1c2ccccc2nc2ccc(Cl)cc12
dose: 1.56 mg/kg/injection, schedule: Q01DX009 (ip), vehicle: saline
  T/C: 109 % of control
dose: 3.12 mg/kg/injection, schedule: Q01DX009 (ip), vehicle: saline
  T/C: 90 % of control
dose: 6.0 mg/kg/injection, schedule: Q04DX003 (ip), vehicle: saline
  T/C: 104 % of control
[12]
  T/C: 100 % of control and 109 % of control
dose: 11.0 mg/kg/injection, schedule: Q01DX009 (ip), vehicle: saline
  T/C: 109 % of control
dose: 12.0 mg/kg/injection, schedule: Q04DX003 (ip), vehicle: saline
  T/C: 109 % of control
[13]
  T/C: 100 % of control
dose: 16.0 mg/kg/injection, schedule: Q01DX009 (ip), vehicle: saline
  T/C: 100 % of control
[10]
  T/C: 109 % of control
dose: 37.0 mg/kg/injection, schedule: Q01DX009 (ip), vehicle: saline
  T/C: 118 % of control
[7]
  T/C: 109 % of control

## Cc1nc([N+](=O)[O-])cn1CC/C(N)=N/O
[4]
  T/C: 108 % of control
[5]
  T/C: 105 % of control
[6]
  T/C: 115 % of control

## O=C(O)CCc1nc(-c2ccccc2)c(-c2ccccc2)o1
[19]
  T/C: 100 % of control
[20]
  T/C: 104 % of control
[21]
  T/C: 119 % of control

## COC(=O)C(CSCc1ccccc1)NC(=O)CCNC(=O)OCc1ccccc1 (stereo unspecified)
dose: 1.56 mg/kg/injection, schedule: Q04DX003 (ip), vehicle: Klucel (hydroxypropylcellulose) (HPC)
  T/C: 100 % of control
dose: 3.13 mg/kg/injection, schedule: Q04DX003 (ip), vehicle: Klucel (hydroxypropylcellulose) (HPC)
  T/C: 104 % of control
[14]
  T/C: 113 % of control
[15]
  T/C: 104 % of control
dose: 12.5 mg/kg/injection, schedule: Q04DX003 (ip), vehicle: saline with Tween-80
  T/C: 93 % of control
dose: 25.0 mg/kg/injection, schedule: Q04DX003 (ip), vehicle: saline with Tween-80
  T/C: 102 % of control
[11]
  T/C: 100 % of control
[4]
  T/C: 107 % of control
[5]
  T/C: 94 % of control
[6]
  T/C: 94 % of control

## CC1=C(/C=C/C(C)=C/C=C/C(C)=C/CO)C(C)(C)CCC1
[19]
  T/C: 92 % of control
[20]
  T/C: 96 % of control
[21]
  T/C: 96 % of control

## CC(C)c1ccc(N2C(N)=NC(N)=NC2(C)C)cc1
dose: 12.5 mg/kg/injection, schedule: Q01DX005 (ip), vehicle: Klucel (hydroxypropylcellulose) (HPC)
  T/C: 110 % of control
dose: 25.0 mg/kg/injection, schedule: Q01DX005 (ip), vehicle: Klucel (hydroxypropylcellulose) (HPC)
  T/C: 108 % of control
dose: 50.0 mg/kg/injection, schedule: Q01DX005 (ip), vehicle: Klucel (hydroxypropylcellulose) (HPC)
  T/C: 105 % of control
